Read-outs that look alike come from different tables or passages of the source.
Legend:
[1] = tested on: skin of the upper arm of volunteers; experiment: Safety test, application on the upper arm of volunteers; conditions: 3 parts by weight (equol equivalent) in ethanol/glycerol/water base, 1-cm square, three times a day for three days, five volunteers each, observed for the next week
[2] = tested on: Mouse B16 melanoma cells; experiment: Test of whitening effect in vitro (melanin production); assay type: cell-based; design: key to Determination of whitening effect: −: Not changed; ±: Slightly whitened; +: A little whitened; ++: Significantly whitened; +++: Completely whitened; conditions: for Determination of whitening effect: B16 melanoma cells, 4 days; for Melanin Production: negative control 73.9; for EC50: Mus musculus, B16, concentration giving half of the melanin production of the negative control, read-out: ED50 (the source's name)
Method: Three equol glycoside preparation prepared in Experiment 1, i.e. the solution containing reaction products (a solution containing 4′-O-α-D-glucopyranosyl-S-equol and 7-O-α-D-glucopyranosyl-S-equol, hereinafter, described as “equol glycoside containing solution”), 4′-O-α-D-glucopyranosyl-S-equol and 7-O-α-D-glucopyranosyl-S-equol, and the equol used in Experiment 1 were used as test samples, and the following experiment was carried out to determine their whitening effect. Mouse B16 melanoma cells suspended in RPMI-1640 medium containing 10 v/v % fetal calf serum (hereinafter, abbreviated as “FCS”) were inoculated into “6-MULTIWELL MICROPLATE” (6-well microplate commercialized by Becton, Dickinson and Company) to give a cell concentration of 4×10^4 cells/well. After the cells were adhered to the bottom of well, the culture supernatant was removed. The cells were admixed with equol or any one of the three equol glycoside samples, diluted with the same medium to give the concentration described in Table 2, and then cultured at 37° C. in an atmosphere of 5 v/v % CO2 for four days. The cells were collected after admixed with trypsin-EDTA, washed once with Dulbecco's PBS (−) (hereinafter, abbreviated as “D-PBS”), and then dissolved in 1N-sodium hydroxide. A part of the solution was used to determine the amount of protein. The above alkaline solution was boiled for 30 minutes and the amount of melanin was measured. […] Also ED50 (the concentration of the test sample giving half of the melanin production in the cell cultured with negative control) is shown in Table 2. The medium alone was used as negative control, and koji acid, which has been used as a whitening substance for external dermatological composition, was used as positive control at the concentration described in Table 2 (0.5 to 2 mM), to evaluate the whitening effect. The evaluation of whitening effect and measurement of melanin, protein and equol glycosides were carried out as follows.
The melanin production was determined by comparing the absorbance at 450 nm (reference 650 nm) of each alkaline solution to that of melanin standard (Sigma Corporation), measured with “MICROPLATE READER M-Vmax” (commercialized by Wako Pure Chemical Industries Co., Ltd.).
The amount of protein was determined by Bradford method using human serum album bumin as standard.
The concentration of equol glycoside in the powdery product used in the following experiments were determined by the same method as used in Experiment 1, based on the molar absorption coefficient of equol measured at UV 280 nm.

[3] = tested on: mouse 3T3-L1 cell line (precursor lipocyte); experiment: Effect on differentiation of precursor lipocyte into lipocyte (oil red O staining); assay type: cell-based; conditions: for Concentration enhancing differentiation of precursor lipocyte into mature lipocyte: Table 3, compared to control; for Enhancing effect on differentiation into lipocyte: with 10 μg/ml insulin, 12 days, relative absorbance, control = 100%, * p < 0.05 vs control
Method: It is known that mouse 3T3-L1 cell line (precursor lipocyte) differentiates into mature lipocyte when cultured in the presence of a differentiation inducer, and accumulates oil droplet in the cell according to the progress of differentiation. The mouse 3T3-Li cells were suspended in a medium, which is Dulbecco's MEM medium (hereinafter, abbreviated as “D-MEM”) supplemented with FCS (final concentration of 10 v/v %) and glucose (final concentration of 3 mg/ml), (hereinafter, described as “regular medium”) to give a cell concentration of 2.5×10^4 cells/well, and inoculated to “CELL CULTURE 24-MULTIWELL MICROPLATE” (24-well microplate coated with collagen type 1, commercialized by Becton, Dickinson and Company) by 1 ml/well. After the cells were cultured at 37° C. in an atmosphere of 5 v/v % CO2 for two days, the supernatant was removed and the remaining cells were admixed with a medium containing 10 μg/ml insulin and equol or equol glycosides dissolved in 50% ethanol, to give a concentration in Table 3, by 1 ml/well and then cultured for 12 days while replacing the medium every two or three days. After each well of the plate was washed with “D-PBS” three times, D-PBS containing 10% formalin was added by 0.2 ml/well, and then the cell was placed at 4° C. for one hour for fixation. After the fixing fluid was removed, a staining fluid of oilred O was added by 0.15 ml/well, and allowed to react at ambient temperature for 15 minutes to stain the lipid droplet in 3T3-L1 cell. After the staining fluid was removed, each well was washed with distilled water three times, and then the plate was dried. After the pigment in each well was dissolved in 0.4 ml of isopropanol, the absorbance of the resulting solution was measured at 490. The progress of the cell differentiation was expressed with relative absorbance to the absrobance of the cell cultured with control regarded as 100%.

[4] = tested on: mouse 3T3-L1 cells differentiated into mature cells; experiment: Test for lipid hydrolysis (glycerol release from mature lipocytes); assay type: cell-based; conditions: for Enhancing effect on lipid hydrolysis: glycerol per cell protein, 6 hours, control 274, * p < 0.05 vs control
Method: After the culture supernatant of mouse 3T3-L1 cells cultured under the same condition described above was removed, a regular medium containing 5 μg/ml insulin, 0.25 μM dexamethasone and 0.5 mM 3-isobutyl-1-methylxanthin was added by 1 ml/well, and then the cells were cultured for two days to differentiate into mature cells. After the supernatant was removed, the cells were washed with D-PBS three times and cultured with regular medium for 12 days while replacing the medium every two or three days by 1 ml/well. After the supernatant was removed and the cells were washed with D-PBS two times, a solution containing equol or equol glycosides diluted with D-MEM containing 1% bovine serum albumin to give the concentration described in Table 4 was added by 0.25 ml/well, and then the cell was cultured for 6 hours. After the supernatant was collected, the amount of glycerol was measured to determine the amount of the degraded lipid. After the supernatant was removed and the cells were washed with D-PBS three times, D-PBS containing 0.25% Triton X-100 was added to collect the cells, and then the cells were sonicated to give a cell-dissolving solution. The amount of protein of the sonicated cells was measured by Bradford method as in Experiment 3, and the amount of glycerol per cell protein representing degree of lipid degradation was shown in Table 3. The amount of glycerol was measured with “GLYCEROL REGENT A” (glycerol measurement kit commercialized by Zen-Bio, Inc.).

[5] = tested on: skin of the upper arm of volunteers; conditions: human, in vivo
[6] = tested on: estrogen-receptor; conditions: Kenneth D. R. et al., Am. J. Clin. Nutr. 81, 1072-1079 (2005); cited from earlier work

Molecule | Determination of whitening effect ([2]; sample concentration 5 μM) | Determination of whitening effect ([2]; sample concentration 10 μM) | Determination of whitening effect ([2]; sample concentration 20 μM) | Melanin Production ([2]; sample concentration 5 μM) | Melanin Production ([2]; sample concentration 10 μM) | Melanin Production ([2]; sample concentration 20 μM) | Concentration enhancing differentiation of precursor lipocyte into mature lipocyte [3] | Enhancing effect on differentiation into lipocyte ([3]; sample 5 μM) | Enhancing effect on differentiation into lipocyte ([3]; sample 20 μM) | Enhancing effect on lipid hydrolysis ([4]; sample 5 μM) | Enhancing effect on lipid hydrolysis ([4]; sample 20 μM) | Enhancing effect on lipid hydrolysis ([4]; sample 80 μM) | other results
OC[C@H]1O[C@H](Oc2ccc([C@@H]3COc4cc(O)ccc4C3)cc2)[C@H](O)[C@@H](O)[C@@H]1O [4′-O-α-D-glucopyranosyl-R-equol] |  |  |  |  |  |  |  |  |  |  |  |  | Condition of the skin after application [1]: no rough dry skin or rubor
Oc1ccc(C2COc3cc(O)ccc3C2)cc1 (centres unmarked) [Equol, equol] | ++ | +++ | +++ | 36.8 μg/mg-cell protein | 30.7 μg/mg-cell protein | 29.8 μg/mg-cell protein | ≥ 5 µM | 194* % | 430* % | 392* μg/mg-cell protein | 679* μg/mg-cell protein | 1119* μg/mg-cell protein | Whitening efficiency compared to positive control ([2]; equol 5 μM to 20 μM, Table 2): approximately the same as that of 1 mM koji acid; Concentration enhancing degradation of triglyceride accumulated in lipocyte ([4]; Table 3, compared to control): ≥ 5 µM
OCC1O[C@H](Oc2ccc3c(c2)OC[C@H](c2ccc(O)cc2)C3)[C@@H](O)C(O)[C@@H]1O (stereo partly drawn) [7-O-α-D-glucopyranosyl-S-equol] | + | + | ++ | 54.8 μg/mg-cell protein | 48.4 μg/mg-cell protein | 43.0 μg/mg-cell protein | 80 µM | 96% | 101% | 265 μg/mg-cell protein | 312* μg/mg-cell protein | 374* μg/mg-cell protein | EC50 [2]: 27.3 µM; Enhancing effect on differentiation into lipocyte ([3]; sample 80 μM): 253* %; Condition of the skin after application [5]: no rough dry skin or rubor
OC[C@H]1O[C@H](Oc2ccc3c(c2)OC[C@@H](c2ccc(O)cc2)C3)[C@H](O)[C@@H](O)[C@@H]1O [7-O-α-D-glucopyranosyl-R-equol] |  |  |  |  |  |  |  |  |  |  |  |  | Condition of the skin after application [1]: no rough dry skin or rubor
S-equol |  |  |  |  |  |  |  |  |  |  |  |  | Estrogenic activity according to the affinity to the receptor [6]: higher than that of R-equol
OCC1O[C@H](Oc2ccc([C@H]3COc4cc(O)ccc4C3)cc2)[C@@H](O)C(O)[C@@H]1O (stereo partly drawn) [4′-O-α-D-glucopyranosyl-S-equol] | + | + | ++ | 57.1 μg/mg-cell protein | 55.0 μg/mg-cell protein | 48.2 μg/mg-cell protein | 80 µM | 92% | 107% | 272 μg/mg-cell protein | 320* μg/mg-cell protein | 401* μg/mg-cell protein | EC50 [2]: 38.8 µM; Enhancing effect on differentiation into lipocyte ([3]; sample 80 μM): 217* %; Condition of the skin after application [5]: no rough dry skin or rubor
O=c1cc(CO)occ1O [Koji cid, koji acid, reference compound] |  |  |  |  |  |  |  |  |  |  |  |  | Determination of whitening effect ([2]; sample concentration 1 mM): +; Determination of whitening effect ([2]; sample concentration 2 mM): ++; Determination of whitening effect ([2]; sample concentration 4 mM): +++; Melanin Production ([2]; sample concentration 1 mM): 57.1 μg/mg-cell protein; Melanin Production ([2]; sample concentration 2 mM): 47.5 μg/mg-cell protein; Melanin Production ([2]; sample concentration 4 mM): 37.7 μg/mg-cell protein
